According to US11234954B2, “Low-dose doxepin for treatment of sleep disorders in elderly patients” (Pernix Sleep, Inc., priority 2006, dated 2022):
Read-outs that look alike come from different tables or passages of the source.

Experiments:
[1] = system: patients aged 65 years or older with primary sleep maintenance insomnia; experiment: Adverse events and safety, elderly crossover study (Example 1); assay type: in vivo, human
From the text: All randomized patients who received at least one dose of double-blind study medication were included in the safety analyses, which were based on observed data.
The adverse events are arranged by system organ class.

[2] = system: patients aged 65 years or older with primary sleep maintenance insomnia; conditions: Per-Protocol N = 71; for WTDS, Mean (primary efficacy variable): WTDS typically expressed in minutes
Experimental: As used herein, the term “polysomnography” (PSG) refers a diagnostic test during which a number of physiologic variables are measured and recorded during sleep. Physiologic sensor leads are placed on the patient in order to record brain electrical activity, eye and jaw muscle movement, leg muscle movement, airflow, respiratory effort (chest and abdominal excursion), EKG and oxygen saturation. Information is gathered from all leads and fed into a computer and outputted as a series of waveform tracings which enable the technician to visualize the various waveforms, assign a score for the test, and assist in the diagnostic process. The primary efficacy variable, wake time during sleep (WTDS) and various secondary efficacy variables are all based on the PSG and are defined as follows.
“Wake Time During Sleep” (WTDS), typically expressed in minutes, is the number of wake events (epochs) after the onset of persistent sleep and prior to final awakening, divided by two. Each epoch is defined as a 30-second duration on the PSG recording.
“Wake Time After Sleep” (WTAS), typically expressed in minutes, is the number of epochs after the final awakening until the end of PSG recording (i.e., a wake epoch immediately prior to the end of the recording), divided by two.
“Wake After Sleep Onset” (WASO) is the sum of WTDS and WTAS.
“Latency to Persistent Sleep” (LPS), typically expressed in minutes, is the number of epochs from the beginning of the PSG recording (lights-out) to the start of the first 20 consecutive non-wake epochs, divided by two.
“Total Sleep Time” (TST), typically expressed in minutes, is the number of non-wake epochs from the beginning of the PSG recording to the end of the recording, divided by two.
“Sleep Efficiency” (SE) is the TST divided by the time in bed (8 hours), multiplied by 100 and expressed as a percentage. This also can be divided into SE for each third-of-the-night of sleep, reflecting the SE for each 160 minute time interval across the night. Finally, SE can be measured for individual hours during the night or sleep period, for example the final hour of the sleep period.
“NAASO” refers to the number of awakenings after sleep onset.
A randomized, multi-center, double-blind, placebo-controlled, four-period crossover, dose-response study was designed to assess the effects of doxepin (1 mg, 3 mg and 6 mg) compared with placebo in patients aged 65 years or older with primary sleep maintenance insomnia. Patients received a single-blind placebo for two consecutive nights during the PSG screening period, and double-blind study drug for two consecutive nights during each of the four treatment periods. […] Patients were allowed to leave the sleep center during the day after each PSG assessment was complete. A 5- or 12-day study drug-free interval separated each PSG assessment visit. The duration of study participation per patient was approximately 7 to 11 weeks.
Patients who qualified for study entry, based on the screening PSG assessments, were randomized to a treatment sequence using a Latin square design. A final study visit was performed for patients either after completion of the four treatment periods or upon discontinuation from the study. Efficacy assessments were made at each visit and safety assessments were performed throughout the study.
The main inclusion criteria were male and/or female patients, aged 65 years or older, in good general health with at least a 3-month history of Diagnostic and Statistical Manual of Mental Disorders, fourth Edition (DSM-IV)-defined primary insomnia, reporting each of the following on four of seven nights prior to PSG screening: ≤6.5 hours of total sleep time (TST), ≥60 min of wakefulness after sleep onset (WASO) and ≥20 min of latency to sleep onset (LSO). Doxepin HCl 1 mg, 3 mg and 6 mg capsules, and placebo capsules, were provided as a single dose for oral administration.
The primary efficacy assessment was WTDS.

[3] = system: primary elderly insomnia patients with sleep maintenance difficulties; experiment: Safety and TEAEs, Phase III elderly study (Example 2)
Experimental: A phase III, randomized, double-blind, placebo-controlled, parallel-group, multicenter study was conducted to assess the long term efficacy and safety of two dose levels of doxepin HCl, 1 mg and 3 mg, in primary elderly insomnia patients with sleep maintenance difficulties.
Doxepin 1 mg tablets or 3 mg tablets (lot number 3044567) were administered as a single oral dose for 85 consecutive nights during the 12-week Double-blind Treatment Period.

[4] = system: Adult Patients (Ages 18-64) with Primary Insomnia; experiment: PSG efficacy, four-period crossover dose-response study in adults 18-64 (Example 3); assay type: in vivo, human; conditions: for LPS, Mean / SE, Mean / TST, Mean / WASO, Mean / WTAS, Mean: Per-Protocol N = 61; for WTDS, observed mean (±SD) (primary efficacy variable): WTDS typically expressed in minutes
From the text: The primary and secondary efficacy assessments were as described above in Example 1.

[5] = system: patients aged 65 years or older with primary sleep maintenance insomnia; experiment: Subjective sleep data, elderly crossover study (Example 1); assay type: in vivo, human; conditions: n = 71
From the text: “sWASO” refers to subjective wake after sleep onset (WASO).
“sTST” refers to subjective total sleep time.
“sNAASO” refers to subjective NAASO.
“LSO” refers to “latency to sleep onset, typically expressed in minutes.
The patients report subjected data, which were consistent with the PSG data.

## CN(C)CCC=C1c2ccccc2COc2ccccc21 (mixture of isomers) [Doxepin]
[1]; 1 mg, N = 74
  HEADACHE: Number of Events: 0
  HEADACHE: Number of Patients: 0 (0%)
[1]; 3 mg, N = 75
  HEADACHE: Number of Events: 0
  HEADACHE: Number of Patients: 0 (0%)
[1]; 6 mg, N = 74
  HEADACHE: Number of Events: 0
  HEADACHE: Number of Patients: 0 (0%)
[2]; 1 mg
  LPS, Mean: 28.3 min
  NAASO, Mean: 12.3
  SE, Mean: 78.5%
  TST, Mean: 376.8 min
  WASO, Mean: 80.5 min
  WTAS, Mean: 10.4 min
  WTDS, Mean (primary efficacy variable): 70.1
[2]; 1 mg, listed as doxepin
  WTDS, Mean (primary efficacy variable): 70.1 (32.78)
[2]; 3 mg
  LPS, Mean: 23.7 min
  NAASO, Mean: 12.8
  SE, Mean: 81.0%
  TST, Mean: 388.8 min
  WASO, Mean: 72.3 min
  WTAS, Mean: 5.9 min
  WTDS, Mean (primary efficacy variable): 66.4
[2]; 3 mg, listed as doxepin
  WTDS, Mean (primary efficacy variable): 66.4 (31.56)
[2]; 6 mg
  LPS, Mean: 22.4 min
  NAASO, Mean: 12.5
  SE, Mean: 82.8%
  TST, Mean: 397.4 min
  WASO, Mean: 65.2 min
  WTAS, Mean: 5.0 min
  WTDS, Mean (primary efficacy variable): 60.2
[2]; 6 mg, listed as doxepin
  WTDS, Mean (primary efficacy variable): 60.2 (28.00)
[3]; 1 mg and 3 mg
  deaths during the study or within 30 days following last dose: no reported deaths
[3]; 1 mg, N = 77
  Infections and Infestations, subjects (%): 12 (16%)
  Upper respiratory tract infection, subjects (%): 2 (3%)
  Urinary tract infection, subjects (%): 2 (3%)
[3]; 3 mg, N = 82
  Infections and Infestations, subjects (%): 11 (13%)
  Upper respiratory tract infection, subjects (%): 1 (1%)
  Urinary tract infection, subjects (%): 0 (0%)
[4]; 1 mg
  LPS, Mean: 30.1 min
  SE, Mean: 84.7%
  TST, Mean: 406.5 min
  WASO, Mean: 47.3 min
  WTAS, Mean: 4.1 min
  WTDS, observed mean (±SD) (primary efficacy variable): 43.2 (28.2)
[4]; 3 mg
  LPS, Mean: 30.8 min
  SE, Mean: 86.5%
  TST, Mean: 415.2 min
  WASO, Mean: 38.6 min
  WTAS, Mean: 5.2 min
  WTDS, observed mean (±SD) (primary efficacy variable): 33.4 (21.87)
[4]; 6 mg
  LPS, Mean: 27.9 min
  SE, Mean: 86.9%
  TST, Mean: 417.2 min
  WASO, Mean: 38.8 min
  WTAS, Mean: 2.5 min
  WTDS, observed mean (±SD) (primary efficacy variable): 35.3 (25.17)
[5]; 1 mg
  LSO, Mean (SD): 42.3 (32.1)
  Sleep Quality, Mean (SD): 0.8 (1.0)
  sNAASO, Mean (SD): 3.2 (2.1)
  sTST, Mean (SD): 355.7 (63.1)
  sWASO, Mean (SD): 74.3 (55.2)
[5]; 3 mg
  LSO, Mean (SD): 42.4 (40.1)
  Sleep Quality, Mean (SD): 0.9 (1.0)
  sNAASO, Mean (SD): 2.9 (1.7)
  sTST, Mean (SD): 362.4 (64.3)
  sWASO, Mean (SD): 72.2 (56.4)
[5]; 6 mg
  LSO, Mean (SD): 33.9 (24.8)
  Sleep Quality, Mean (SD): 0.8 (1.0)
  sNAASO, Mean (SD): 3.0 (1.4)
  sTST, Mean (SD): 369.4 (65.3)
  sWASO, Mean (SD): 71.5 (57.4)
